Like-named read-outs stand apart in the source and are kept apart here.
Assays:
[1] = tested on: phospho-eIF4E S209 in BC-CML primary cells; experiment: Immunofluorescence of phospho-eIF4E in BC-CML primary cells; format: cell-based, human; details: 48 h
Text: (§1) Cord Blood (CB) samples were purchased from the Singapore Cord Blood bank. CML samples were the Singapore General Hospital after signed informed consent under local IRB-approved procedures. MNCs were obtained using Ficoll separation, and CD34^+ cells selected by immunomagnetic beads (Miltenyi Biotech, Germany).
Cells (1×10^5) were cytospun onto glass slides, fixed with 4% paraformaldehye, and stained with mouse monoclonal antibodies against activated β-catenin (clone 8E7, Millipore, UK), or rabbit monoclonal antibodies against phospho-eIF4E S209 (EP2151Y, Abcam, UK). Slides were then stained with either PE-conjugated anti-mouse or FITC-conjugated anti-rabbit antibodies. Images were obtained with the use of a fluorescence microscope (Olympus IX71S1F3) at 40× magnification.

[2] = tested on: CD34+ BC cells; experiment: Serial replating assay, CD34+ BC-CML cells; format: cell-based, human; details: for serial replating efficiency of CD34+ BC cells compared to DMSO: increasing dose, 48 hr treatment, three replatings (>8 weeks)
Text: as §1
CD34-enriched CB and BC cells were thawed and allowed to recover overnight in serum-free StemPro media (Invitrogen, Carlsbad, Calif.), supplemented with human growth factors and 1× nutrient supplement (Invitrogen). Cells were then subjected to drug treatment for 48 hr, harvested, washed, and seeded in methycellulose (H4434, […] Technologies, Canada). Colonies were enumerated after 2 weeks, individually picked, and replated in fresh methylcellulose in a 96-well format, and counted at 2 weeks. Three rounds of serial replating (representing >8 weeks in culture) were performed.

[3] = tested on: eIF4E Ser209 phosphorylation in Hela cells; experiment: MNK cell-based assay (AlphaScreen SureFire, eIF4E Ser209 phosphorylation); details: Homo sapiens, read-out: IC50 Hela
How it was run: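 Hela cells (30,000/well) exposed to test compound in serum-free medium for 2 h at 37 °C, then lysed. Phospho-Ser209 eIF4E quantified by AlphaScreen SureFire; IC50 obtained by non-linear regression of signal versus log compound concentration.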

[4] = tested on: eIF4E phosphorylation in K562 cells; experiment: Western blot of eIF4E phosphorylation in K562 cells; format: cell-based; details: various concentrations, 24 h
Procedure: K562 cell line was obtained from the ATCC, and grown in RPMI supplemented with 10% FCS, L-glutamine, and penicillin/streptomycin.
Exponentially growing cells were plated at 2×10^5 cells/ml, and whole cell lysate processed for western blot analysis using antibodies recognizing eIF4E, phospho-eIF4E (Cell signaling Technology),

[5] = tested on: active nuclear beta-catenin in BC GMPs; details: background; cited from earlier work
[6] = tested on: eIF4E phosphorylation in BC GMPs; details: background; cited from earlier work
[7] = tested on: CD34+BC cells (including those carrying T315I mutation); details: background; cited from earlier work
[8] = biological target: T1, MNK1 (Homo sapiens, UniProt Q9BUB5); experiment: In vitro MNK kinase assay (Caliper LabChip mobility shift), MNK1; format: biochemical; details: enzymatic; 1.2 mM ATP
T1 construct: recombinant kinase domains expressed in E. coli; fused on or other part: N-terminal GST tag, removed with PreScission protease before the test
T1 sequence (Q9BUB5 1-424 isoform Q9BUB5-2): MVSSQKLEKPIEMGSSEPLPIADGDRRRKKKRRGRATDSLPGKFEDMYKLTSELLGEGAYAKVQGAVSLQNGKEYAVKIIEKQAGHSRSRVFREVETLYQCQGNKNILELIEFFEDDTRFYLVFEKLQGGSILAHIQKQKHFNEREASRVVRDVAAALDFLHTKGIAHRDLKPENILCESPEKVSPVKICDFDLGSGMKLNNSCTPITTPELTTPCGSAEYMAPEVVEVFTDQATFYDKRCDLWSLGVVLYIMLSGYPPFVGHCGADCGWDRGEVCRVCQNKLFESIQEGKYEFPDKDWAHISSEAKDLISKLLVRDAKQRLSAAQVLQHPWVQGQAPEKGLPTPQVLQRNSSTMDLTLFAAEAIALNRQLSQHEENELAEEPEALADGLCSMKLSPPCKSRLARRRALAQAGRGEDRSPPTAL
Procedure: (§2) MNK1 and MNK2 inhibitor activity was determined using recombinant kinase domains expressed in E. coli. MNK1 and MNK2 were expressed as GST fusion proteins and the GST tag was removed using PreScission protease. After concentration to 10-15 mg/ml the proteins were flash frozen in liquid nitrogen and stored at −80° C.
(§3) This reaction mixture was then used immediately for the activation of the MNKs. The activation of the MNK1 was performed by incubating 5.0 μM of MNK1 with 0.3 μM of activated ERK2 and 500 μM ATP at 30° C. for 6 hours. The activation of MNK2 was performed by incubating 50 μM of MNK2 with 3.0 μM of activated ERK2 and 500 μM ATP at 30° C. for 2 hours. The activated MNKs were stored at −20° C. until required for assay.
(§4) Kinase assays were performed on the Caliper Life Sciences (Mountain View, Calif.) Microfluidics LabChip® Platform. Enzyme activity is analyzed by ‘sipping’ reactions from a microtitre plate into LabChip. The data signature is generated by the shift in mobility of non-phosphorylated peptide substrates and phosphorylated products by electrophoresis in the chip and detected by LED induced fluorescence. […] The data is analyzed by calculating the relative heights of the substrate and product peaks and the product/(product+substrate) peak ratio is reported.
(§5) The following buffers were used to assay kinase activity:
(§6) Reconstitution buffer: 10 mM HEPES/NaOH pH7.5, 0.003% Brij® L23, 0.004% TWEEN® 20.
(§7) Separation buffer: 100 mM HEPES/NaOH pH7.3, 0.02% Brij® L23, 5% DMSO, 0.1% CR3, 1 mM EDTA pH8.0.
(§8) The reaction was stopped by the addition of […] termination buffer.
(§9) Inhibition constants (IC50) were determined by plotting kinase activity versus log compound concentration and fitting with a non-linear regression algorithm using GraphPad Prism (GraphPad Software Inc.).

[9] = biological target: T2, MNK2 (Homo sapiens, UniProt Q9HBH9); experiment: In vitro MNK kinase assay (Caliper LabChip mobility shift), MNK2; format: biochemical; details: enzymatic; 250 μM ATP
T2 construct: GST (cleaved yes); made in house; host or cells: E. coli
T2 sequence (Q9HBH9 84-388 limits assumed): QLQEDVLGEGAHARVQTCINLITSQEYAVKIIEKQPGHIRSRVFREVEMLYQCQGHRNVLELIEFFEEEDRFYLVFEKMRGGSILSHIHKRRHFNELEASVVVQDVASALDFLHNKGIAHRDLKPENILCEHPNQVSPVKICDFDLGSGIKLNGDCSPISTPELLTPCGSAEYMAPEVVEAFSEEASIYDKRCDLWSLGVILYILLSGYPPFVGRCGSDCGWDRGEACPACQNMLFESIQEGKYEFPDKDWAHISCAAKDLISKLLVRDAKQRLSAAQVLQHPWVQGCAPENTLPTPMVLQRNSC
Procedure: as §2, §3, §4, §5, §6, §7, §8, §9

[10] = tested on: patient-derived BC cells in NSG mice; details: 40 mg/kg/d CGP or 5 mg/kg/d dasatinib for three weeks; read at 16 weeks; cited from earlier work
[11] = eIF4E Ser209 phosphorylation, Hela cells, 2 hours

SMILES	eIF4E phosphorylation in BC-CML primary cells, immunofluorescence [1]	IC50 [3, 11]	eIF4E phosphorylation in K562 (BC-CML cell line), Western blot [4]	IC50 [8]	IC50 [9]	other results
CN1CCN(C(=O)c2ccc(-c3cn4c(-c5ccc(O)cc5)cnc4cn3)cc2)CC1 [Example 1, (4-(3-(4-hydroxyphenyl)imidazo[1,2-a]pyrazin-6-l)phenyl)(4-methylpiperazin-1-yl)methanone]	prevent eIF4E phosphorylation	< 1000 nM	prevent eIF4E phosphorylation			serial replating efficiency of CD34+ BC cells compared to DMSO [2]: retards the serial replating efficiency
Cc1ccc(NC(=O)c2ccc(CN3CCN(C)CC3)cc2)cc1Nc1nccc(-c2cccnc2)n1 [imatinib]						accumulation of active nuclear beta-catenin in BC GMPs [5]: not; eIF4E phosphorylation in BC GMPs [6]: not; ability of CD34+ BC cells to serially replate for more than 8 weeks in methylcellulose [7]: only partially impaired
CN1CCN(C(=O)c2ccc(-c3cn4c(-c5ccc(C#N)cc5)cnc4cn3)cc2)CC1 [Example 6, 4-(6-(4-(4-methylpiperazine-1-carbonyl)phenyl)imidazo[1,2-a]pyrazin-3-yl)benzonitrile]	prevent eIF4E phosphorylation		prevent eIF4E phosphorylation			IC50 ([3]; HeLa, 2 h): < 1000 nM
O=C(c1ccc(-c2cn3c(-c4ccc(O)cc4)cnc3cn2)cc1)N1CCOCC1 [Example 2, (4-(3-(4-hydroxyphenyl)imidazo[1,2-a]pyrazin-6-yl)phenyl)(morpholino)methanone]	prevent eIF4E phosphorylation	< 1000 nM	prevent eIF4E phosphorylation			ability of BC cells to serial replate ([2]; at 10.0 μM and 20.0 μM): potently impaired the ability of BC cells to serial replate; serial replating efficiency of CD34+ BC cells compared to DMSO [2]: retards serial replating efficiency
Cc1cc(-c2cn3c(-c4ccc(C#N)cc4)cnc3cn2)ccc1C(=O)N1CCC(N)CC1 [Example 27, 4-(6-(4-(4-aminopiperidine-1-carbonyl)-3-methylphenyl)imidazo [1,2-a]pyrazin-3-yl)benzonitrile]		< 1000 nM		< 100 nM	< 100 nM	
CC(=O)Nc1cc(-c2ccc3ncc(-c4ccc(C#N)cc4)n3n2)ccc1C(=O)N1CCOCC1 [Example 80, N-(5-(3-(4-cyanophenyl)imidazo[1,2-b]pyridazin-6-yl)-2-(morpholine-4-carbonyl)phenyl)acetamide]		< 1000 nM		< 100 nM	< 100 nM	
N#Cc1ccc(-c2cnc3ccc(-c4ccc(C(=O)N5CCN(c6ccncc6)CC5)cc4)cn23)cc1 [Example 125, 4-(6-(4-(4-(pyridin-4-yl)piperazine-1-carbonyl)phenyl)imidazo[1,2-a]pyridin-3-yl)benzonitrile]		< 1000 nM		< 100 nM	< 100 nM	
Cc1nc(Nc2ncc(C(=O)Nc3c(C)cccc3Cl)s2)cc(N2CCN(CCO)CC2)n1 [dasatinib]						accumulation of active nuclear beta-catenin in BC GMPs [5]: not; eIF4E phosphorylation in BC GMPs [6]: not; ability of CD34+ BC cells to serially replate for more than 8 weeks in methylcellulose [7]: only partially impaired; serial transplantation of BC cells in NSG mice after in vivo treatment [10]: not
CC(=O)NC1CCN(C(=O)c2ccc(-c3cn4c(-c5ccc(Cl)cc5)cnc4cn3)cc2)CC1 [Example 49]		< 1000 nM		< 1000 nM	< 1000 nM	

From patent publication US20190211020A1 (Agency for Science, Technology and Research, priority 2012, published 2019)
